Measured values as given in paper PMC5430962, “Retro-inverso Urokinase Receptor Antagonists for the Treatment of Metastatic Sarcomas” (Scientific Reports, 2017).
[ ]: non-standard residue; d: D form. Aib = CC(C)(N)C(=O)O

Columns and labels:
[1] = Stability in bovine serum, read out as inhibition of HT1080 migration (xCELLigence); format: in vitro ADME; settings: pre-incubated at 10^−3 M in bovine serum 18 hr at 37 °C, tested at 10 nM on HT1080 migration 18 hr, quadruplicate
Experimental: A major limitation of peptides for use as therapeutics is susceptibility to degradation by serum proteases. The stability of RI-3 in bovine and human serum was investigated by comparing inhibitory activities of RI-3 and RI-3 pre-incubated at 10^−3 M with serum for 18 hr at 37 °C on cell migration and invasion. HT1080 cells were allowed to migrate for 18 hr toward DMEM (CTRL), 10% FBS (None), 10% FBS plus 10 nM RI-3 or 10% FBS with 10 nM RI-3 pre-incubated in bovine serum. […] The stability of RI-3 in human serum was investigated in cell invasion experiments performed in Boyden chambers. […]
(a) HT1080 cells were allowed to migrate in real time for 18 hr toward DMEM (CTRL), or 10% FBS in the absence (None) or the presence of 10 nM RI-3 or 10 nM RI-3 pre-incubated at 10^−3 M in bovine serum for 18 hr at 37 °C. […] The basal value assessed in the absence of FBS (CTRL) was taken as 100% and all values were reported relative to that. Data are the means ± SD three independent experiments, performed in triplicate. *Indicates statistical significance calculated against None, with *P < 0.05, **P < 0.0001. (c) Cell proliferation of HT1080 cells assessed by MTS assay. […] At the indicated times, the absorbance of adherent cells was assessed with a microplate reader. […]

[2] = tested on: HT1080 cells; assay: HT1080 matrigel invasion toward 10% FBS in Boyden chambers; format: cell-based, human; settings: 10 nM peptide plus 10% FBS, 6 hr, means of three independent experiments in triplicate
Experimental: Cell migration in Boyden chambers was carried out for 4 hr at 37 °C in humidified air with 5% CO2, as described. Briefly, cell suspension (1 × 10^5 viable cells/mL serum free medium) was seeded in each upper chamber. Lower chambers were filled with DMEM alone, DMEM containing RI peptides, 10 nM fMLF, or 10% FBS with/without RI peptides. The two compartments were separated by 8 μm pore size polycarbonate filters (Neuroprobe) coated with 2.5 µg/mL vitronectin (Corning). For the invasion assays, 8 μm pore size filters were coated with 50 μg/filter matrigel (BD Biosciences) as previously described[40] and cells (3 × 10^4 viable cells/well) were allowed to invade matrigel for 6 hr at 37 °C, 5% CO2. In all cases, at the end of the assay, cells on the lower filter surface were fixed with ethanol, stained with haematoxylin and 10 random fields/filter were counted at 200× magnification. Each experiment was performed three times in triplicate.

[3] = biological target: T1, FPR1 (Homo sapiens, UniProt P21462); assay: Agonist-dependent FPR1 internalization, fluorescence microscopy in RBL-2H3/ETFR cells; format: cell-based; settings: 100 nM peptide 30 min at 37 °C, then 10 nM FITC-fMLF 30 min at 37 °C; confocal microscopy
T1 construct: expressed in transfected cells; host or cells: rat basophilic leukaemia RBL-2H3/ETFR cells (gift of F. Blasi)
T1 sequence (P21462 1-350): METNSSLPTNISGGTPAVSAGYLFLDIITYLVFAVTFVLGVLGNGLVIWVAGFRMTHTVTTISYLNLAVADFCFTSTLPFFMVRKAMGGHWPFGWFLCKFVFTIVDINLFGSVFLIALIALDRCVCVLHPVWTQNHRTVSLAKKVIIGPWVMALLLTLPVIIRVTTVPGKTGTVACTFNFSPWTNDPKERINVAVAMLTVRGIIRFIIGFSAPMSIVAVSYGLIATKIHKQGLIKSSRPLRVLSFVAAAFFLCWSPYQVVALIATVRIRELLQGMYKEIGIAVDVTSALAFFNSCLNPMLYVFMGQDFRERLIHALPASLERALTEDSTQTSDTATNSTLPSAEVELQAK
Experimental: Cells grown on glass slides to semi-confluence were exposed to diluents or the indicated unlabeled peptides for 30 min at 37 °C, then to 10 nM FITC-fMLF in PBS for additional 30 min at 37 °C and extensively rinsed with PBS. To visualize the cytoskeleton, the cells were fixed with 2.5% formaldehyde, permeabilized with 0.1% Triton X-100 for 10 min at 4 °C, and incubated with 0.1 µg/mL rhodamine-conjugated phalloidin (Sigma-Aldrich) for 40 min. In all cases, coverslips were mounted using 20% (w/v) Mowiol, visualized with a Zeiss 510META-LSM microscope (Carl Zeiss), and z-series were collected at 0.20 µm intervals.

Ac-[dY][dR][Aib][dR]-NH2 (SMILES CC(=O)N[C@H](Cc1ccc(O)cc1)C(=O)N[C@H](CCCNC(=N)N)C(=O)NC(C)(C)C(=O)N[C@H](CCCNC(=N)N)C(N)=O) [RI-3]
cell index curves of migrating cells, peptide vs peptide pre-incubated in bovine serum [1]: overlapping curves | reduction of the extent of cell invasion (matrigel) [2]: 51% | effect on agonist-dependent FPR1 internalization [3]: paucity of FPR1 internalization
